Results from ChEMBL document CHEMBL1201862, “PubChem BioAssay data set” (2004).
Active and inactive are the calls of the source.

Experiments:
Large T antigen = Large T antigen (Simian virus 40, UniProt P03070); assay type: functional, Betapolyomavirus macacae;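 further: Confirmatory-stage PubChem screen for compounds that inhibit SV40 T antigen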
[1] = biological target: T1, RNA-binding protein pos-1 (Caenorhabditis elegans, UniProt G5EF15); assay: disruptors of C. elegans POS-1 RNA interaction – biochemical, fluorescence polarization, dose response (AID 1964);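 further: purified POS-1 fused to maltose binding protein made in E. coli; potency of compounds blocking POS-1 binding to fluorescent RNA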
T1 sequence (G5EF15 whole entry): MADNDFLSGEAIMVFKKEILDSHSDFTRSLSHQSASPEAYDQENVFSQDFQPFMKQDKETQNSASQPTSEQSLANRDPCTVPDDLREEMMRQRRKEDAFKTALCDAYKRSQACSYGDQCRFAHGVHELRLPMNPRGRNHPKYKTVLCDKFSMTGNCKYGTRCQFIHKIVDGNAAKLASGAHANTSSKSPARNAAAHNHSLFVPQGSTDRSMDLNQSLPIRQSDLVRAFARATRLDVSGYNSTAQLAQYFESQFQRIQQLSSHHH

[2] = biological target: T2, Zinc finger protein mex-5 (Caenorhabditis elegans, UniProt Q9XUB2); assay: potency of MEX-5 RNA-binding blockers – biochemical, C. elegans, fluorescence polarization, dose response (AID 1960)
T2 sequence (Q9XUB2 whole entry): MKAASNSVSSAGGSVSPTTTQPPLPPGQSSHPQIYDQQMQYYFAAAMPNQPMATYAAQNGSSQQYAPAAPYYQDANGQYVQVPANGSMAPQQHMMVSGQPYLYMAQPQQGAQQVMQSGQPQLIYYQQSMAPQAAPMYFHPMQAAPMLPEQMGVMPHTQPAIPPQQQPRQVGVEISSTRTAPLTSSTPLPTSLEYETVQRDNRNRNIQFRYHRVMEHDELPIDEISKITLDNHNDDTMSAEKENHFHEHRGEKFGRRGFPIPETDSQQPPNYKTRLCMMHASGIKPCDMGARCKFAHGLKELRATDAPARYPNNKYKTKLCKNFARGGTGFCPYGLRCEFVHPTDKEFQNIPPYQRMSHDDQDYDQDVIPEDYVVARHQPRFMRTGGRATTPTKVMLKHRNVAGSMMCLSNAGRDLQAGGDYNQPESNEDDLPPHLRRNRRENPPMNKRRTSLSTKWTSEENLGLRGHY

[3] = biological target: T3, Sentrin-specific protease 8 (Homo sapiens, UniProt Q96LD8); assay type: functional
T3 sequence (Q96LD8 whole entry): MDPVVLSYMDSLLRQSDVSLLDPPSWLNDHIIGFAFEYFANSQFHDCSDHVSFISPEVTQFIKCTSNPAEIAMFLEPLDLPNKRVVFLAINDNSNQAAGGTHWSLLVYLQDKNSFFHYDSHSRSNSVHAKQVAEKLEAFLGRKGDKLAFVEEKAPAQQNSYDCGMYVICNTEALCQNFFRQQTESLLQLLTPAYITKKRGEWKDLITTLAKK

[4] = biological target: T4, Replicative DNA helicase DnaB (Mycobacterium tuberculosis, UniProt P9WMR3); assay: DnaB intein splicing inhibitors, dose response, biochemical, cell-free fluorescence (AID 449749); assay type: functional
T4 sequence (P9WMR3 whole entry): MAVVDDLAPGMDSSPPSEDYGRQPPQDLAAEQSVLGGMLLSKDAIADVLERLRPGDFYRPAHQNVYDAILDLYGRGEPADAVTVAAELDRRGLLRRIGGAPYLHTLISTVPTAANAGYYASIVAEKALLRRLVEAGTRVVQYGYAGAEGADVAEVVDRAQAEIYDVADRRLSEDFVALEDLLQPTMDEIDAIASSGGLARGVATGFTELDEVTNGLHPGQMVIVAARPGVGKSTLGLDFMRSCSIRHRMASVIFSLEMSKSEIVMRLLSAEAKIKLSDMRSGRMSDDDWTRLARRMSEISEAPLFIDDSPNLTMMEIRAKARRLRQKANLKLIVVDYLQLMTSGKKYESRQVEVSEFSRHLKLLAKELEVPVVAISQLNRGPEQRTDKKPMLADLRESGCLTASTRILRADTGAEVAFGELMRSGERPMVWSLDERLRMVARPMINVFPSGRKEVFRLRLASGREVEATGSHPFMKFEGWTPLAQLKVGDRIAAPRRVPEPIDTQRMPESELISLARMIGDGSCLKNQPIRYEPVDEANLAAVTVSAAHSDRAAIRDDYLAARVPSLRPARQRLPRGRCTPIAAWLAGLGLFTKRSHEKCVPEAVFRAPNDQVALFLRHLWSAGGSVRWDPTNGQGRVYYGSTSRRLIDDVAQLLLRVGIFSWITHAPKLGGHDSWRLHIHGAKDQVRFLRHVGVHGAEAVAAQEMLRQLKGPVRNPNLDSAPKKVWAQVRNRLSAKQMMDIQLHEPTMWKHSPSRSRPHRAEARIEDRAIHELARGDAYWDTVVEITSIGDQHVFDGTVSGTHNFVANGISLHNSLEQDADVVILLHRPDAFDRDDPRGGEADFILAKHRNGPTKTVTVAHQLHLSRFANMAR

[5] = biological target: T3, Sentrin-specific protease 8; assay type: functional; remark: listed apart in the source
Protein RecA = biological target: T5, Protein RecA (Mycobacterium tuberculosis, UniProt P9WHJ3); assay: Fluorescence Cell-Free Homogeneous Dose Retest to Identify Inhibitors of RecA-Intein Splicing Activity. [Related pubchem assays (depositor defined):AID2097, AID2223, AID489010, AID492950]; assay type: functional
T5 sequence (P9WHJ3 whole entry): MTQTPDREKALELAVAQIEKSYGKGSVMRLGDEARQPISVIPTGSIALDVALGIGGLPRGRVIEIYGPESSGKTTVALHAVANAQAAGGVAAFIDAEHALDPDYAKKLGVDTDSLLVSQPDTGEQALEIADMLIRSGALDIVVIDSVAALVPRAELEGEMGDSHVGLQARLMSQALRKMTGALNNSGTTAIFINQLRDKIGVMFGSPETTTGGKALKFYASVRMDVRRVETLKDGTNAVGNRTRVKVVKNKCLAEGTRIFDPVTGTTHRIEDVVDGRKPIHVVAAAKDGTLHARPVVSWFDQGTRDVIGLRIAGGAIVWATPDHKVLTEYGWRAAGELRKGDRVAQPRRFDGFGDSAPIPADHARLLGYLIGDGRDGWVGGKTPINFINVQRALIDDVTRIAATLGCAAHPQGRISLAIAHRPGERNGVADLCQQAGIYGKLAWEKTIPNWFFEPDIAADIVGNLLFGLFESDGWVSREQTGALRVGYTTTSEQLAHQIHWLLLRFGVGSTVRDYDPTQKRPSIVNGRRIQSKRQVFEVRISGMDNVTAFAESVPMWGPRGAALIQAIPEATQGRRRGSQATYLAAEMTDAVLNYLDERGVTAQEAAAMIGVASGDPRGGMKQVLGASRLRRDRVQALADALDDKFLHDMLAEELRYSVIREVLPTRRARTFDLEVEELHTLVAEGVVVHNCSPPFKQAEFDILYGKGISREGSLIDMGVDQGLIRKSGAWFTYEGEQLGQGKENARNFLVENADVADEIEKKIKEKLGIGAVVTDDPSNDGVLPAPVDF

[6] = Counterscreen for activators of the function of SWI/SNF related, matrix associated, actin dependent regulator of chromatin, subfamily a, member 2 (SMARCA2, BRM): Luminescence-based cell-based high throughput dose response assay to identify non-selective compounds using the VP16 reporter assay.; assay type: functional
[7] = Trypanosoma cruzi growth suppression in host cells – NIH3T3 host cells, beta-gal luminescence, confirmation (AID 2044); assay type: functional, cell-based;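 further: intracellular parasites grown in NIH/3T3 mouse fibroblasts as host cells; luminescent beta-galactosidase reporter signal from transgenic T. cruzi replicating inside host cells; inhibitors lower the luminescence signal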
[8] = NIH3T3 cell viability loss – ATP luminescence, mouse fibroblasts, counter-screen, dose response (AID 2010); assay type: functional, cell-based;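 further: cells exposed to compound for about 90 hours before reading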
[9] = biological target: T6, DNA repair and recombination protein RAD54-like (Homo sapiens, UniProt Q92698); assay: RAD54 Holliday junction migration blockers – biochemical, fluorescence, cherry-picked samples, dose series, confirmation (AID 651657); assay type: functional
T6 sequence (Q92698 whole entry): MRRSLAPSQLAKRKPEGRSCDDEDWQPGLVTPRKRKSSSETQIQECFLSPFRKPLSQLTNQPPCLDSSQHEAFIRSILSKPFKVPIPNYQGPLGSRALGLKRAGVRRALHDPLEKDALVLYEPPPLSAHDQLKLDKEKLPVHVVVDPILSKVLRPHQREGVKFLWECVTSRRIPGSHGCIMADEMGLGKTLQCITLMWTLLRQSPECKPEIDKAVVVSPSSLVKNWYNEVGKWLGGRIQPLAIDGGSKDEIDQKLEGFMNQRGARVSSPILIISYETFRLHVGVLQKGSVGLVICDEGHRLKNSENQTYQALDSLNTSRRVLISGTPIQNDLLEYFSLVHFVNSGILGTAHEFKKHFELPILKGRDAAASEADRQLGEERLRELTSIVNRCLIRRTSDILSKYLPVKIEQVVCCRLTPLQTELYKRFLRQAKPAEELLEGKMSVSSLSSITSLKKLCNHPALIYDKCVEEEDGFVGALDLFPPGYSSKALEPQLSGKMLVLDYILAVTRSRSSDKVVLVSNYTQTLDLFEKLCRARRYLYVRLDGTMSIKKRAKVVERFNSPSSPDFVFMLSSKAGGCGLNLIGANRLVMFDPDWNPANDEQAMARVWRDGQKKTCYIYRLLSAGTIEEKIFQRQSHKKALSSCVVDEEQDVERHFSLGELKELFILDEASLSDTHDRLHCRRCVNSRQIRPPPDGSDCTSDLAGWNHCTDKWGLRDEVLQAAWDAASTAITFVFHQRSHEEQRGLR

[10] = viability of PTEN-deleted HCT116 cells – cell-based, HCT116 PTEN knockout, dose response (AID 1047); assay type: functional;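 further: HCT116 colon tumor cells with PTEN knocked out; cells exposed to compound for 60 hours before readout; potency for loss of cell viability measured by luminescence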
Nonstructural protein 1 = Nonstructural protein 1 (Influenza A virus, UniProt Q194T2); assay type: functional, Influenza A virus (A/California/07/2009(H1N1))
Chain of Nonstructural protein 1 (Q194T2 whole entry): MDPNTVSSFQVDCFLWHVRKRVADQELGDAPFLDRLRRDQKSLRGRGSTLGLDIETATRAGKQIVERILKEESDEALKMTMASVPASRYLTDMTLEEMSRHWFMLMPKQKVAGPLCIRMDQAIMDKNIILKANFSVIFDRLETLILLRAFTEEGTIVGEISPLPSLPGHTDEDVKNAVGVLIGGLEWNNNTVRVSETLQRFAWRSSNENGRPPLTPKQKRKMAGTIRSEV

[11] = acridine orange displacement from DNA – biochemical, fluorescence polarization, cherry-pick, artefact control for RAD54 inhibitor project, dose response (AID 651673); assay type: functional
[12] = viability of HCT116 lacking mutant beta-catenin – cell-based, human colon tumor, dose response (AID 1045); assay type: functional;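 further: HCT116 colon tumor cells with beta catenin knocked out; cells exposed to compound for 60 hours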
[13] = biological target: SWI/SNF-related matrix-associated actin-dependent regulator of chromatin subfamily A member 2 (Homo sapiens, UniProt P51531); assay: Luminescence-based cell-based high throughput dose response assay to identify activators of the function of SWI/SNF related, matrix associated, actin dependent regulator of chromatin, subfamily a, member 2 (SMARCA2, BRM).; assay type: functional
Chain of SWI/SNF-related matrix-associated actin-dependent regulator of chromatin subfamily A member 2 (P51531 whole entry): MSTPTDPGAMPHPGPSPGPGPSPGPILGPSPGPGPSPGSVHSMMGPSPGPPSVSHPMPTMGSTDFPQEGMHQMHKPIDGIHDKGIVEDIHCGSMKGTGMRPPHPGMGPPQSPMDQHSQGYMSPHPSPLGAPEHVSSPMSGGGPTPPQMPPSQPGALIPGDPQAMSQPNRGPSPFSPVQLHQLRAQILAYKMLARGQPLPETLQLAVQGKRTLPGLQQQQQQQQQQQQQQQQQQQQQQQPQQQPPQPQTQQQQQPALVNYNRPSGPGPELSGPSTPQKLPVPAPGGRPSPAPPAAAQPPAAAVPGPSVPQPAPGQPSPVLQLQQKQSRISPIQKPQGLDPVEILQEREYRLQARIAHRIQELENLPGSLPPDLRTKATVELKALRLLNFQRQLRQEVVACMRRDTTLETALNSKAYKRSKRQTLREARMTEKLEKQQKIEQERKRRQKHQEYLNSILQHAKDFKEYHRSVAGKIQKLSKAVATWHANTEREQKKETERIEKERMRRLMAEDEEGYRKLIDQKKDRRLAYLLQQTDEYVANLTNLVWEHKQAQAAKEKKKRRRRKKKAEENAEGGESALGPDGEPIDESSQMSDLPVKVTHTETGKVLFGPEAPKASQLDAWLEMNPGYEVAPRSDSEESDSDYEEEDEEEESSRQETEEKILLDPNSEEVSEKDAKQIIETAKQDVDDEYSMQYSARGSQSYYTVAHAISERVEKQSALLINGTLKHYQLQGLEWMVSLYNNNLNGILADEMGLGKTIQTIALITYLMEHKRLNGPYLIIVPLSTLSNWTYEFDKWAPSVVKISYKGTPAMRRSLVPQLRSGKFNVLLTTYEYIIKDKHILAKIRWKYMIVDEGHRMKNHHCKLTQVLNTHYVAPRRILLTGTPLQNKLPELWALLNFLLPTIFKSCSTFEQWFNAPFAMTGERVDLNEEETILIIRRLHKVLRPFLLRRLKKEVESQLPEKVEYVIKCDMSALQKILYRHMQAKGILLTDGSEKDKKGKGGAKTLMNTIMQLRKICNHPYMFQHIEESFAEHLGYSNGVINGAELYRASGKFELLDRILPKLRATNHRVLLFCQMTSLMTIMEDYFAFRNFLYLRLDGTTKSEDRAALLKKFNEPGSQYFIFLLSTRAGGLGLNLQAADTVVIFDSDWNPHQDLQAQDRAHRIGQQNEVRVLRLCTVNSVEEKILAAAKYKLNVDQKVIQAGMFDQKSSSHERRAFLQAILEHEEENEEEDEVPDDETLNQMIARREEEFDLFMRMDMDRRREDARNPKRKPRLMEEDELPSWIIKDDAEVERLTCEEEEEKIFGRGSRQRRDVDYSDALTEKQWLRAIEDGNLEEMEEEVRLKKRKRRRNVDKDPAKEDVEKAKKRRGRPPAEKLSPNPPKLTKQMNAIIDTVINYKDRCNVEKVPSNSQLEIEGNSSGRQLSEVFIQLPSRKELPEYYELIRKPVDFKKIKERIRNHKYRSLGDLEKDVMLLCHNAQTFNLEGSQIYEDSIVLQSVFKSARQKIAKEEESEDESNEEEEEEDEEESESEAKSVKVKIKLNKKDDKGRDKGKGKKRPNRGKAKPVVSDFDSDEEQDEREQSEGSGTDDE

[14] = biological target: DNA (cytosine-5)-methyltransferase 1 (Homo sapiens, UniProt P26358); assay: inhibition of DNA methylation by DNMT1 – biochemical, fluorescent molecular beacon, confirmation (AID 602386); assay type: functional
Chain of DNA (cytosine-5)-methyltransferase 1 (P26358 whole entry, the tested form may be a part): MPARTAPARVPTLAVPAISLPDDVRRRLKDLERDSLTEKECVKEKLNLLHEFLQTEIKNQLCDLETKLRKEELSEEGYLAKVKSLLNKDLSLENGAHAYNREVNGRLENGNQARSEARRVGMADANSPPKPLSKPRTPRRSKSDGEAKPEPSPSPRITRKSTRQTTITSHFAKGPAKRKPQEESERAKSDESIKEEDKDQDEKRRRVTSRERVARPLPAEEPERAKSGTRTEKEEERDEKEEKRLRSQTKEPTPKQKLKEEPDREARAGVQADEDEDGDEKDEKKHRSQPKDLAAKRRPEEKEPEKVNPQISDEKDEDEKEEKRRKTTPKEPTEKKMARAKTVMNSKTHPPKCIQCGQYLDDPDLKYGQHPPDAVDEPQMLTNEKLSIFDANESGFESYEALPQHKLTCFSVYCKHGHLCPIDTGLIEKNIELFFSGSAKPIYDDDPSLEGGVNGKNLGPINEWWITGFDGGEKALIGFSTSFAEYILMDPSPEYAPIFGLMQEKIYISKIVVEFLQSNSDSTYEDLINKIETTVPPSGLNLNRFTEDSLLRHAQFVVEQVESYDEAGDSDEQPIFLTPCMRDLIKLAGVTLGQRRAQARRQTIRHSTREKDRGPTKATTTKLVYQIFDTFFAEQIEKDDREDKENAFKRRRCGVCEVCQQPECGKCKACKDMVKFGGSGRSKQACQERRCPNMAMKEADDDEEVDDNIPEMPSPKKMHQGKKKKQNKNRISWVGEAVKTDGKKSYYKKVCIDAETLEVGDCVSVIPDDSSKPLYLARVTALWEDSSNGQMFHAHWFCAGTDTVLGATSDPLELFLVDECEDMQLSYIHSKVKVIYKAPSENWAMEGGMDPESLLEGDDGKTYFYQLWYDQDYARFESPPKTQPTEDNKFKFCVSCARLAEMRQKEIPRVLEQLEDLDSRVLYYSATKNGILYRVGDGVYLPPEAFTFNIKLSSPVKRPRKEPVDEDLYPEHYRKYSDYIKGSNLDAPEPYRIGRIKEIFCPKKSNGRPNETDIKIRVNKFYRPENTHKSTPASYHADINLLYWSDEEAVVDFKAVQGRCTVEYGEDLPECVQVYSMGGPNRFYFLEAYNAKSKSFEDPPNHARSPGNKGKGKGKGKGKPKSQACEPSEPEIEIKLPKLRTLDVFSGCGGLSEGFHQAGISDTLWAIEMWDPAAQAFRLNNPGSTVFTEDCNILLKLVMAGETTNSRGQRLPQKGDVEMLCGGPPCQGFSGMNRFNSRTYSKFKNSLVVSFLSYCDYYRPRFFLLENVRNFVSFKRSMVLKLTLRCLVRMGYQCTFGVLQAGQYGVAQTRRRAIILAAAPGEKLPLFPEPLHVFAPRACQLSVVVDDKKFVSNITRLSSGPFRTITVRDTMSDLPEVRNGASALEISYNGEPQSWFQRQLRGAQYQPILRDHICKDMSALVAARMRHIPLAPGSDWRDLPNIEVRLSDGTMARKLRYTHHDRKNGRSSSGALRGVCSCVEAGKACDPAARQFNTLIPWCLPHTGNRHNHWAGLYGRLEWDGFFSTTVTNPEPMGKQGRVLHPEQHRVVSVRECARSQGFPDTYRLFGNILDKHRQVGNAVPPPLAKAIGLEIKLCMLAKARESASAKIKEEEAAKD

[15] = biological target: T7, Sentrin-specific protease 1 (Homo sapiens, UniProt Q9P0U3); assay: SENP1 catalytic domain blockers, concentration series – biochemical, kinetic FRET, dose response (AID 651697); assay type: functional; conditions: read-out: IC50_Mean
T7 sequence (Q9P0U3 whole entry, the tested form may be a part): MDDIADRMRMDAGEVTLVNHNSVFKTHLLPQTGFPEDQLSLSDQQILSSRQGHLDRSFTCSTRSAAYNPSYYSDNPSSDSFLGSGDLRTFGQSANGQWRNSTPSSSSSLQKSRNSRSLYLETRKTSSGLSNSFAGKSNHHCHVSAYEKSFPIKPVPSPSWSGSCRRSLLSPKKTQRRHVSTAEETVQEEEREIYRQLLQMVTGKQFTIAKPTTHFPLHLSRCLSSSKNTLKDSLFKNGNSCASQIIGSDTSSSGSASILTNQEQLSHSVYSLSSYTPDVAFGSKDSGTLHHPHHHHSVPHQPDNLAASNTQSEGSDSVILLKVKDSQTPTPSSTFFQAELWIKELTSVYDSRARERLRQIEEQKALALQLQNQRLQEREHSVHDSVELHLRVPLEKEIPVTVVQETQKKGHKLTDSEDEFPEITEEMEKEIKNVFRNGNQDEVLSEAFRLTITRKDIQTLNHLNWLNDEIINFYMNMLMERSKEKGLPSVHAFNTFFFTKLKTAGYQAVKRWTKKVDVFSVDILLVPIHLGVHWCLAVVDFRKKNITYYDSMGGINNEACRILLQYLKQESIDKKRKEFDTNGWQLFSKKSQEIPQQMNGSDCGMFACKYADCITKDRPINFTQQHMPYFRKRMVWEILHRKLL

[16] = biological target: T7, Sentrin-specific protease 1; assay: Dose response confirmation of small molecule inhibitors of the catalytic domain of the SUMO protease, SENP1 in a FRET assay.; assay type: functional; conditions: read-out: IC50_Mean
Protein skinhead-1 = biological target: T8, Protein skinhead-1 (Caenorhabditis elegans, UniProt P34707); assay type: functional
T8 sequence (P34707 whole entry): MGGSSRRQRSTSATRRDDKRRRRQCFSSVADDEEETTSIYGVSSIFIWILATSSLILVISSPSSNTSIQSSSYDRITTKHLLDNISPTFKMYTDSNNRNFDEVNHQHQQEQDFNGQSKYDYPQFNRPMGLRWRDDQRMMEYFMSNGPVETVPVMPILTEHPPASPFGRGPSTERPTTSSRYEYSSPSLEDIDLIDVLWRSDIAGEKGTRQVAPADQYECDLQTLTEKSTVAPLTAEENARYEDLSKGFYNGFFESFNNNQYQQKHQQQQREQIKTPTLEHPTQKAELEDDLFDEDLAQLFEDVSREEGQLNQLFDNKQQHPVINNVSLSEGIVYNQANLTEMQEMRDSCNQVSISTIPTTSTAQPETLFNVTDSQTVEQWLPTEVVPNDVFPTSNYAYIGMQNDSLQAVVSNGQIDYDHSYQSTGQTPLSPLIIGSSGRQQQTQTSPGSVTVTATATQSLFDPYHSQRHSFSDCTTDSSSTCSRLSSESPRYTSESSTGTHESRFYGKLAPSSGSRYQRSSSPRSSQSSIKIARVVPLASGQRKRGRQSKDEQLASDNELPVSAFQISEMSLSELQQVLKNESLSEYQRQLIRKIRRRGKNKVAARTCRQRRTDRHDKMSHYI

[17] = cytotoxicity toward MDA-MB-231 breast cancer cells – cell-based, CellTiter-Glo luminescence, cherry-pick, cytotoxicity control for RAD54 inhibitor project, dose response (AID 651692); assay type: functional
[18] = biological target: Beta-2 adrenergic receptor (Homo sapiens, UniProt P07550); assay: ADRB2 activation measured by internalization – cell-based, FAP fluorogen, flow cytometry, cherry pick 1, dose response (AID 588763); assay type: functional
Vero = assay: cells; assay type: functional; conditions: Chlorocebus sabaeus
[19] = biological target: T9, DNA repair protein RAD52 homolog (Homo sapiens, UniProt P43351); assay type: functional, biochemical
T9 sequence (P43351 whole entry): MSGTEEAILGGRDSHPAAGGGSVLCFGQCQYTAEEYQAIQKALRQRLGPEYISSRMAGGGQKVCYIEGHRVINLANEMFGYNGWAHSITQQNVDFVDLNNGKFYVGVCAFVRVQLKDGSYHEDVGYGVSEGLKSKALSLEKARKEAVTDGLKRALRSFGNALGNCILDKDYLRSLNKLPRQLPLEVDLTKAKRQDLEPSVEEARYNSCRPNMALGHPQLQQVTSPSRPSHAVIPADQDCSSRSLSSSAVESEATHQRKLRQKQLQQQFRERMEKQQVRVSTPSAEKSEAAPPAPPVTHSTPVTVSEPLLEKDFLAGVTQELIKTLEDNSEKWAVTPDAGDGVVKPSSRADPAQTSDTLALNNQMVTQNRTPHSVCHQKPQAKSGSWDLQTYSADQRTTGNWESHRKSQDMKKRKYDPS

Chain of Large T antigen (P03070 whole entry, the tested form may be a part): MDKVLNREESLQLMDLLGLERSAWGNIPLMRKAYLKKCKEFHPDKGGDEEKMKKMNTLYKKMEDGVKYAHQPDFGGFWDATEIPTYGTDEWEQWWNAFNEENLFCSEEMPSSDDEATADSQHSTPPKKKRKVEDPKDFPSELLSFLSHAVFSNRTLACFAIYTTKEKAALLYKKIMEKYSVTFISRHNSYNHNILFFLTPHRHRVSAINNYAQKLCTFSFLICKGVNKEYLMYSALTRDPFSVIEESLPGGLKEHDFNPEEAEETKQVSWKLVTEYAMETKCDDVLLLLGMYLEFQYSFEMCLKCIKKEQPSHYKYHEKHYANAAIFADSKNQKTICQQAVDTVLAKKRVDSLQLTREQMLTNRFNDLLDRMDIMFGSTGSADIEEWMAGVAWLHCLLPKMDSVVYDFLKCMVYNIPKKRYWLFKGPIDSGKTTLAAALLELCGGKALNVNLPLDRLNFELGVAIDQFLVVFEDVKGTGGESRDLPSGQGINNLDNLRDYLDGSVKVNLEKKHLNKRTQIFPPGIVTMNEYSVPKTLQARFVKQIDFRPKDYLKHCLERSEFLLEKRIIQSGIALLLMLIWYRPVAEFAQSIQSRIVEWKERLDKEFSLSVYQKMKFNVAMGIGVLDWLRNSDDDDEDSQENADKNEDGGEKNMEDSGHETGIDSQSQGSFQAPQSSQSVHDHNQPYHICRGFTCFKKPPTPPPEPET

CCOc1cc(C(c2c(C)[nH][nH]c2=O)c2c(C)[nH][nH]c2=O)ccc1O
active: IC50 (Large T antigen) > 100 µM | EC50 [1] 57.9 µM | EC50 [2] 107 µM | IC50 [3] 16.2 µM | AC50 [4] 0.302 µM | IC50 [5] 21.4 µM | EC50 (Protein RecA) 0.24 µM

CCN(CC)CCNc1nc2cc(OC)c(OC)cc2c2nc(-c3ccccc3)nn12
inactive: EC50 [6] > 91.2 µM | EC50 [13] > 91.2 µM | IC50 [14] > 99 µM
> 30 µM (not active): EC50 [8]
active: EC50 [7] 0.678 µM | AC50 [9] 1.92 µM | EC50 [10] 4.9 µM | IC50 (Nonstructural protein 1) > 100 µM | AC50 [11] 51.8 µM | EC50 [12] 3.48 µM

Cc1cc(C)c(Cn2c(C(=O)O)c(C=O)c3ccccc32)c(C)c1
active: IC50 [15] 16.9 µM
inactive: IC50 [16] 20.8 µM

CN(C)CCNc1ncnc2c1sc1nc(N3CCCC3)c3c(c12)CC(C)(C)OC3
active: AC50 [17] 34.7 µM | EC50 [18] 4.02 µM | AC50 [9] 9.5 µM | CC50 (Vero) 17.8 µM | AC50 [19] 6.55 µM
inactive: IC50 (Protein skinhead-1) > 100 µM
